Measured values taken from ChEMBL document CHEMBL3797190, “Development of 3,5-Dinitrobenzylsulfanyl-1,3,4-oxadiazoles and Thiadiazoles as Selective Antitubercular Agents Active Against Replicating and Nonreplicating Mycobacterium tuberculosis” (J Med Chem, 2016).
In brackets after ≈: the same amount, converted by molar mass.

How the values were obtained:
Assay type in all cases: functional
Pichia kudriavzevii = assay: Antifungal activity against Candida krusei E28 after 24 to 48 hrs by broth microdilution method
[1] = system: Mycobacterium tuberculosis; assay: Antimycobacterial activity against Mycobacterium tuberculosis CNCTC My 331/88 after 21 days by microdilution method; conditions: CNCTC My 331/88, 504 h
Candida tropicalis = assay: Antifungal activity against Candida tropicalis 156 after 24 to 48 hrs by broth microdilution method
Escherichia coli = assay: Antibacterial activity against Escherichia coli ATCC 8739 after 24 to 48 hrs by broth microdilution method
[2] = system: Mycobacterium tuberculosis; assay: Antimycobacterial activity against Mycobacterium tuberculosis CNCTC My 331/88 after 14 days by microdilution method; conditions: CNCTC My 331/88, 336 h
Staphylococcus aureus [3] = assay: Antibacterial activity against methicillin-resistant Staphylococcus aureus H 5996/08 after 24 to 48 hrs by broth microdilution method
Klebsiella pneumoniae [4] = assay: Antibacterial activity against ESBL producing Klebsiella pneumoniae J 14368/08 after 24 to 48 hrs by broth microdilution method
Mycobacterium kansasii [5] = assay: Antimycobacterial activity against Mycobacterium kansasii CNCTC My 6509/96 after 21 days by microdilution method; conditions: CNCTC My 6509/96, 504 h
Mycobacterium kansasii [6] = assay: Antimycobacterial activity against Mycobacterium kansasii CNCTC My 6509/96 after 14 days by microdilution method; conditions: CNCTC My 6509/96, 336 h
Candida albicans = assay: Antifungal activity against Candida albicans ATCC 44859 after 24 to 48 hrs by broth microdilution method
Mycobacterium kansasii [7] = assay: Antimycobacterial activity against Mycobacterium kansasii CNCTC My 235/80 after 21 days by microdilution method; conditions: CNCTC My 235/80, 504 h
Nakaseomyces glabratus = assay: Antifungal activity against Candida glabrata 20/I after 24 to 48 hrs by broth microdilution method
[8] = system: Trichophyton mentagrophytes; assay: Antifungal activity against Trichophyton mentagrophytes 445 after 72 to 120 hrs by broth microdilution method
Enterococcus faecalis = assay: Antibacterial activity against Enterococcus faecalis J 14365/08 after 24 to 48 hrs by broth microdilution method
Klebsiella pneumoniae [9] = assay: Antibacterial activity against Klebsiella pneumoniae D 11750/08 after 24 to 48 hrs by broth microdilution method
Mycobacterium kansasii [10] = assay: Antimycobacterial activity against Mycobacterium kansasii CNCTC My 235/80 after 14 days by microdilution method; conditions: CNCTC My 235/80, 336 h
Lichtheimia corymbifera = assay: Antifungal activity against Absidia corymbifera 272 after 24 to 48 hrs by broth microdilution method
Staphylococcus aureus [11] = assay: Antibacterial activity against Staphylococcus aureus ATCC 6538 after 24 to 48 hrs by broth microdilution method
[12] = system: Staphylococcus epidermidis; assay: Antibacterial activity against Staphylococcus epidermidis H 6966/08 after 24 to 48 hrs by broth microdilution method
Mycobacterium kansasii [13] = assay: Antimycobacterial activity against Mycobacterium kansasii CNCTC My 235/80 after 7 days by microdilution method; conditions: CNCTC My 235/80, 168 h
Mycobacterium kansasii [14] = assay: Antimycobacterial activity against Mycobacterium kansasii CNCTC My 6509/96 after 7 days by microdilution method; conditions: CNCTC My 6509/96, 168 h
Aspergillus fumigatus = assay: Antifungal activity against Aspergillus fumigatus 231 after 24 to 48 hrs by broth microdilution method
Pseudomonas aeruginosa = assay: Antibacterial activity against Pseudomonas aeruginosa ATCC 9027 after 24 to 48 hrs by broth microdilution method
Trichosporon asahii = assay: Antifungal activity against Trichosporon asahii 1188 after 24 to 48 hrs by broth microdilution method
Mycobacterium avium [15] = assay: Antimycobacterial activity against Mycobacterium avium CNCTC My 330/88 after 14 days by microdilution method; conditions: CNCTC My 330/88, 336 h
Mycobacterium avium [16] = assay: Antimycobacterial activity against Mycobacterium avium CNCTC My 330/88 after 21 days by microdilution method; conditions: CNCTC My 330/88, 504 h

Row | SMILES | MIC99 [1] [µM] | MIC99 [2] [µM] | MIC99 (Mycobacterium kansasii [5]) [µM] | MIC99 (Mycobacterium kansasii [6]) [µM] | MIC99 (Mycobacterium kansasii [7]) [µM] | MIC99 (Mycobacterium kansasii [10]) [µM] | MIC99 (Mycobacterium kansasii [13]) [µM] | MIC99 (Mycobacterium kansasii [14]) [µM] | MIC99 (Mycobacterium avium [15]) [µM] | MIC99 (Mycobacterium avium [16]) [µM] | also measured
1 | O=[N+]([O-])c1ccc(CSc2nnc(-c3ccc(Cl)cc3)s2)c([N+](=O)[O-])c1 | 4 (≈ 1.64 µg/mL) | 2 (≈ 0.818 µg/mL) | 4 (≈ 1.64 µg/mL) | 2 (≈ 0.818 µg/mL) | 4 (≈ 1.64 µg/mL) | 2 (≈ 0.818 µg/mL) | 1 (≈ 0.409 µg/mL) | 1 (≈ 0.409 µg/mL) | 4 (≈ 1.64 µg/mL) | 8 (≈ 3.27 µg/mL) | MIC80 (Pichia kudriavzevii): > 125 µM; MIC80 (Candida tropicalis): > 125 µM; MIC95 (Escherichia coli): > 125 µM; MIC95 (Staphylococcus aureus [3]): > 125 µM; MIC95 (Klebsiella pneumoniae [4]): > 125 µM; MIC80 (Candida albicans): > 125 µM; MIC80 (Nakaseomyces glabratus): > 125 µM; MIC50 [8]: > 125 µM; MIC95 (Enterococcus faecalis): > 125 µM; MIC95 (Klebsiella pneumoniae [9]): > 125 µM; MIC50 (Lichtheimia corymbifera): > 125 µM; MIC95 (Staphylococcus aureus [11]): > 125 µM; MIC95 [12]: > 125 µM; MIC50 (Aspergillus fumigatus): > 125 µM; MIC95 (Pseudomonas aeruginosa): > 125 µM; MIC80 (Trichosporon asahii): > 125 µM
2 | O=[N+]([O-])c1cc(CSc2nnc(-c3ccc(Cl)cc3)o2)cc([N+](=O)[O-])c1 |  |  | 0.5 (≈ 0.196 µg/mL) |  |  |  |  |  | > 125 | > 125 | MIC80 (Pichia kudriavzevii): > 125 µM; MIC80 (Candida tropicalis): > 125 µM; MIC95 (Escherichia coli): > 125 µM; MIC95 (Staphylococcus aureus [3]): > 125 µM; MIC95 (Klebsiella pneumoniae [4]): > 125 µM; MIC80 (Candida albicans): > 125 µM; MIC80 (Nakaseomyces glabratus): > 125 µM; MIC50 [8]: > 125 µM; MIC95 (Enterococcus faecalis): > 125 µM; MIC95 (Klebsiella pneumoniae [9]): > 125 µM; MIC50 (Lichtheimia corymbifera): > 125 µM; MIC95 (Staphylococcus aureus [11]): > 125 µM; MIC95 [12]: > 125 µM; MIC50 (Aspergillus fumigatus): > 125 µM; MIC95 (Pseudomonas aeruginosa): > 125 µM; MIC80 (Trichosporon asahii): > 125 µM
3 | CCCCCCCCCCCc1nnc(SCc2cc([N+](=O)[O-])cc([N+](=O)[O-])c2)o1 | 0.25 (≈ 0.109 µg/mL) | 0.25 (≈ 0.109 µg/mL) | 0.25 (≈ 0.109 µg/mL) | 0.25 (≈ 0.109 µg/mL) | 0.25 (≈ 0.109 µg/mL) | 0.25 (≈ 0.109 µg/mL) | 0.125 (≈ 0.0546 µg/mL) | 0.25 (≈ 0.109 µg/mL) | 4 (≈ 1.75 µg/mL) | 8 (≈ 3.49 µg/mL) | MIC80 (Pichia kudriavzevii): > 125 µM; MIC80 (Candida tropicalis): > 125 µM; MIC95 (Escherichia coli): > 125 µM; MIC95 (Staphylococcus aureus [3]): > 125 µM; MIC95 (Klebsiella pneumoniae [4]): > 125 µM; MIC80 (Candida albicans): > 125 µM; MIC80 (Nakaseomyces glabratus): > 125 µM; MIC50 [8]: > 125 µM; MIC95 (Enterococcus faecalis): > 125 µM; MIC95 (Klebsiella pneumoniae [9]): > 125 µM; MIC50 (Lichtheimia corymbifera): > 125 µM; MIC95 (Staphylococcus aureus [11]): > 125 µM; MIC95 [12]: > 125 µM; MIC50 (Aspergillus fumigatus): > 125 µM; MIC95 (Pseudomonas aeruginosa): > 125 µM; MIC80 (Trichosporon asahii): > 125 µM
4 | O=[N+]([O-])c1cc(CSc2nnc(-c3ccccc3Cl)s2)cc([N+](=O)[O-])c1 | 0.125 (≈ 0.0511 µg/mL) | 0.125 (≈ 0.0511 µg/mL) | 1 (≈ 0.409 µg/mL) | 1 (≈ 0.409 µg/mL) | 1 (≈ 0.409 µg/mL) | 1 (≈ 0.409 µg/mL) | 0.5 (≈ 0.204 µg/mL) | 0.5 (≈ 0.204 µg/mL) | 16 (≈ 6.54 µg/mL) | > 16 | 
5 | O=[N+]([O-])c1cc(CSc2nnc(-c3ccc(O)cc3)o2)cc([N+](=O)[O-])c1 | 1 (≈ 0.374 µg/mL) | 1 (≈ 0.374 µg/mL) | 16 (≈ 5.99 µg/mL) | 8 (≈ 2.99 µg/mL) | 16 (≈ 5.99 µg/mL) | 8 (≈ 2.99 µg/mL) | 4 (≈ 1.5 µg/mL) | 4 (≈ 1.5 µg/mL) | 62 (≈ 23.2 µg/mL) | 62 (≈ 23.2 µg/mL) | 
6 | O=[N+]([O-])c1cc(CSc2nnc(-c3ccncc3)s2)cc([N+](=O)[O-])c1 | 0.125 (≈ 0.0469 µg/mL) | 0.125 (≈ 0.0469 µg/mL) | 1 (≈ 0.375 µg/mL) | 1 (≈ 0.375 µg/mL) | 1 (≈ 0.375 µg/mL) | 1 (≈ 0.375 µg/mL) | 0.5 (≈ 0.188 µg/mL) | 0.5 (≈ 0.188 µg/mL) | > 125 | > 125 | 
7 | O=[N+]([O-])c1cc(CSc2nnc(-c3ccc(Cl)cc3)o2)cc(C(F)(F)F)c1 | > 32 | > 32 | > 32 | > 32 | > 32 | > 32 | > 32 | > 32 | > 500 | > 500 | 
8 | Cc1cc(C)cc(-c2nnc(SCc3cc([N+](=O)[O-])cc([N+](=O)[O-])c3)s2)c1 | 0.125 (≈ 0.0503 µg/mL) | 0.125 (≈ 0.0503 µg/mL) | 0.5 (≈ 0.201 µg/mL) | 0.5 (≈ 0.201 µg/mL) | 1 (≈ 0.402 µg/mL) | 1 (≈ 0.402 µg/mL) | 0.25 (≈ 0.101 µg/mL) | 0.25 (≈ 0.101 µg/mL) | > 16 | > 16 | 
9 | O=[N+]([O-])c1cc(CSc2nnc(-c3ccccc3Cl)o2)cc([N+](=O)[O-])c1 | 0.125 (≈ 0.0491 µg/mL) | 0.125 (≈ 0.0491 µg/mL) | 1 (≈ 0.393 µg/mL) | 0.5 (≈ 0.196 µg/mL) | 0.5 (≈ 0.196 µg/mL) | 0.25 (≈ 0.0982 µg/mL) | 0.125 (≈ 0.0491 µg/mL) | 0.125 (≈ 0.0491 µg/mL) | 16 (≈ 6.28 µg/mL) | 32 (≈ 12.6 µg/mL) | 
10 | O=[N+]([O-])c1ccc(CSc2nnc(-c3ccncc3)o2)c([N+](=O)[O-])c1 | 8 (≈ 2.87 µg/mL) | 8 (≈ 2.87 µg/mL) | 32 (≈ 11.5 µg/mL) | 32 (≈ 11.5 µg/mL) | 32 (≈ 11.5 µg/mL) | 32 (≈ 11.5 µg/mL) | 16 (≈ 5.75 µg/mL) | 32 (≈ 11.5 µg/mL) | 62 (≈ 22.3 µg/mL) | 62 (≈ 22.3 µg/mL) | 
11 | O=[N+]([O-])c1cc(CSc2nnc(-c3ccc(Cl)cc3)s2)cc(C(F)(F)F)c1 | > 32 | > 32 | > 32 | > 32 | > 32 | > 32 | > 32 | > 32 | > 500 | > 500 | 
12 | O=[N+]([O-])c1cc(CSc2nnc(-c3ccncc3)o2)cc([N+](=O)[O-])c1 | 0.5 (≈ 0.18 µg/mL) | 0.5 (≈ 0.18 µg/mL) | 4 (≈ 1.44 µg/mL) | 2 (≈ 0.719 µg/mL) | 2 (≈ 0.719 µg/mL) | 2 (≈ 0.719 µg/mL) | 1 (≈ 0.359 µg/mL) | 2 (≈ 0.719 µg/mL) | 62 (≈ 22.3 µg/mL) | 62 (≈ 22.3 µg/mL) | 
